# In patent US20080171784A1, “Methods For the Stabilization of Atorvastatin” (ZENTIVA, A.S., priority 2003, published 2008):
# Where a name gives a salt, the structure may show the parent alone.
# Assays:
# Format in all cases: physicochemical
# [1] = Set of stress tests of atorvastatin (HPLC)
# Procedure: The following experiments were carried out in order to determine the instability of atorvastatin. The purpose was to find out which factors lead to the degradation of the product. • 1. Set of stress tests. The stock solution of atorvastatin (2 ml) was gradually subjected to the following experiments: a. boil (24 hr) with 2 ml of 0.2 N hydrochloric acid, b. boil (24 hr) with 2 ml of 0.2 N acetic acid, c. boil (24 hr) with 2 ml of 0.2 N sodium hydroxide, d. boil (24 hr) with 2 ml of 4% hydrogen peroxide, e. boil (24 hr) with 2 ml of water, f. irradiation with UV radiation (5 hr), g. irradiation with visible light (24 hr), h. solid substance heated at 100° C. for 24 hr, i. solid substance subjected to UV radiation (5 hr), j. solid substance subjected to visible light (24 hr).
# [2] = Oxidation of 1% atorvastatin solution in ethyl acetate-acetonitrile (1:1) at 40° C.
# Procedure: In order to precisely determine the decomposition mechanism, the following experiments examining only the oxidative decomposition of atorvastatin were carried out. A recent publication/Pharmaceutical Development and Technology, 7(1), 1-32 (2002)/described a set of experiments which are suitable for the recognition of oxidation of substances and for the determination of its mechanism.
# The following experiments were carried out:
# a. oxidation of a 1% solution of atorvastatin in the system of ethyl acetate-acetonitrile (1:1) at 40° C. using a radical initiator (2,2′-azobiscyanopentanoic acid) at a pressure of 1 MPa of oxygen; b. oxidation of a 1% solution of atorvastatin in the system of ethyl acetate-acetonitrile (1:1) at 40° C. without a radical initiator; c. control experiment in the system of ethyl acetate-acetonitrile (1:1) at 40° C. using a radical initiator (2,2′-azobiscyanopentanoic acid) in an inert atmosphere of argon (the partial pressure of oxygen found as being about 1 kPa).
# [3] = Stability tests of solid amorphous atorvastatin in different packages and oxygen partial pressures
# Procedure: In order to make the carried-out experiments more precise, stability tests of solid amorphous atorvastatin and of several selected dosage forms were established. As to containers, polyethylene (PE) and an aluminium foil with a sealable PE layer (Al+PE) were used. Some of the stability data were determined in nitrogen atmosphere (N2) (with a partial pressure of oxygen of roughly 3 kPa).
# [4] = Example 1: amorphous atorvastatin sealed in aluminium foil with oxygen absorbers, 80° C., 72 hr (HPLC)
# Procedure: Amorphous atorvastatin (1 g) was sealed in a sealable aluminium foil together with the oxygen absorber Ageless® Z100 (Mitsubishi) or with the absorber of oxygen and carbon dioxide Ageless® E100 (Mitsubishi) and the sample was heated at 80° C. for 72 hr. The reference sample was prepared and heated in the same way without the use of absorbers.
# [5] = Example 2: amorphous atorvastatin sealed in aluminium foil with oxygen absorbers, 40° C., 1.5 months (HPLC)
# Procedure: Amorphous atorvastatin (1 g) was sealed in a sealable aluminium foil together with the oxygen absorber Ageless® Z100 (Mitsubishi) or with the absorber of oxygen and carbon dioxide Ageless® E100 (Mitsubishi) and the sample was heated at 40° C. for 1.5 months. The reference sample was prepared and heated in the same way without the use of absorbers.
# [6] = Example 7: test of stability under reduced pressure
# Procedure: A pure amorphous atorvastatin substance was close din a tempered box under air pressure of 5.5-7.5 kPa. The partial pressure of oxygen was estimated as 1.2-1.5 kPa
# The measurement has given the following results:
# For comparison, sample 0010903/18 was kept in a thermostat at 80° C. under normal atmospheric pressure, i.e. partial pressure of oxygen about 18 kPa for 160 hours.
# [7] = 80° C., 72 hr, oxygen absorber Ageless Z100
# [8] = 80° C., 72 hr, oxygen and carbon dioxide absorber Ageless E100
# [9] = 80° C., 72 hr, reference sample without absorbers
# [10] = 40° C., 1.5 months, oxygen absorber Ageless Z100
# [11] = 40° C., 1.5 months, oxygen and carbon dioxide absorber Ageless E100
# [12] = 40° C., 1.5 months, reference sample without absorbers
molecule,measurement,setting,value
"CC(C)c1c(C(=O)Nc2ccccc2)c(-c2ccccc2)c(-c2ccc(F)cc2)n1CC[C@@H](O)C[C@@H](O)CC(=O)O [atorvastatin, hemicalcium salt of (3R,5R) 7-[3-phenyl-4-phenylcarbamoyl-2-(4-fluorophenyl)-5-isopropylpyrrol-1-yl]-3,5-dihydroxyheptanoic acid]",Content of Atorvastatin,[1]; 5 hr under UV in water,64.3%
same,Content of Atorvastatin,"[1]; solid substance 5 hr, UV",99.3%
same,Content of Atorvastatin,"[1]; solid substance 24 hr, 100° C.",96.3%
same,Content of Atorvastatin,"[1]; solid substance 24 hr, visible light",96.5%
same,Content of Atorvastatin,"[1]; solution, 24 hr in the light (visible)",104.5%
same,Content of Atorvastatin,"[1]; stock solution, 24 hr boil in 0.1 N AcOH",83.2%
same,Content of Atorvastatin,"[1]; stock solution, 24 hr boil in 0.1 N HCl",2.1%
same,Content of Atorvastatin,"[1]; stock solution, 24 hr boil in 0.1 N NaOH",72.0%
same,Content of Atorvastatin,"[1]; stock solution, 24 hr boil in 2% H2O2",54.8%
same,Content of Atorvastatin,"[1]; stock solution, 24 hr boil in water",88.4%
same,Impurities,"[2]; 0 hours, entry sample",0.49%
same,Impurities,"[2]; 24 hours, radical initiator no, PO 1 MPa, 40° C.",9.27%
same,Impurities,"[2]; 24 hours, radical initiator yes, PO 0.001 MPa (argon), 40° C.",0.98%
same,Impurities,"[2]; 24 hours, radical initiator yes, PO 1 MPa, 40° C.",6.42%
same,Impurities,"[2]; 48 hours, radical initiator yes, PO 0.001 MPa (argon), 40° C.",1.38%
same,Impurities,"[2]; 48 hours, radical initiator yes, PO 1 MPa, 40° C.",24.37%
same,Impurities,"[2]; 72 hours, radical initiator yes, PO 1 MPa, 40° C.",30.93%
"hemicalcium salt of (3R,5R) 7-[3-phenyl-4-phenylcarbamoyl-2-(4-fluorophenyl)-5-isopropylpyrrol-1-yl]-3,5-dihydroxyheptanoic acid [amorphous atorvastatin]",Impurities,"[3]; 0 months, entry",0.21%
same,Impurities,"[3]; 3 months, 5 ° C., package 2x RE, PO 18 kPa",0.39%
same,Impurities,"[3]; 3 months, 5 ° C., package PE + Al, PO 3 kPa (N2)",0.34%
same,Impurities,"[3]; 3 months, 5 ° C., package PE + Al, PO 18 kPa",0.34%
same,Impurities,"[3]; 3 months, 25 ° C., package 2x PE, PO 18 kPa",0.77%
same,Impurities,"[3]; 3 months, 25 ° C., package PE + Al, PO 3 kPa (N2)",0.43%
same,Impurities,"[3]; 3 months, 25 ° C., package PE + Al, PO 18 kPa",0.63%
same,Impurities,"[3]; 6 months, 5 ° C., package 2x PE, PO 18 kPa",0.83%
same,Impurities,"[3]; 6 months, 5 ° C., package PE + Al, PO 3 kPa (N2)",0.44%
same,Impurities,"[3]; 6 months, 5 ° C., package PE + Al, PO 18 kPa",0.71%
same,Lactone of Atorvastatin,[4]; [7],0.19%
same,Total Impurities,[4]; [7],0.64%
same,Lactone of Atorvastatin,[4]; [8],0.14%
same,Total Impurities,[4]; [8],0.60%
same,Lactone of Atorvastatin,[4]; [9],0.33%
same,Total Impurities,[4]; [9],1.32%
same,Lactone of Atorvastatin,[4]; Initial,0%
same,Total Impurities,[4]; Initial,0.49%
same,Lactone of Atorvastatin,[5]; [10],0%
same,Total Impurities,[5]; [10],0.36%
same,Lactone of Atorvastatin,[5]; [11],0.06%
same,Total Impurities,[5]; [11],0.46%
same,Lactone of Atorvastatin,[5]; [12],0.22%
same,Total Impurities,[5]; [12],1.55%
same,Lactone of Atorvastatin,[5]; Initial,0%
same,Total Impurities,[5]; Initial,0.49%
same,Total Impurities,"[6]; air pressure 5.5-7.5 kPa (PO 1.2-1.5 kPa), 55 hrs, 60-65 ° C.",0.33%
same,Total Impurities,"[6]; air pressure 5.5-7.5 kPa (PO 1.2-1.5 kPa), 160 hrs, 80-82 ° C.",0.37%
same,Total Impurities,"[6]; air pressure 5.5-7.5 kPa (PO 1.2-1.5 kPa), 23 days, 20-25 ° C.",0.29%
same,Total Impurities,"[6]; air pressure 5.5-7.5 kPa (PO 1.2-1.5 kPa), 42 days, 40-42 ° C.",0.35%
same,Total Impurities,"[6]; normal atmospheric pressure, PO about 18 kPa, 80° C., 160 hours",1.92%
